Test results as given in ChEMBL document CHEMBL3885861, “Open TG-GATES”.

Species: Rattus norvegicus
Assay: Open TG-GATES - Regimen: Daily Repeat
Format: toxicity, organism-based, Sprague-Dawley
Design: regimen Daily Repeat, gender Male, age 6 weeks
Settings: in vivo, po, 30 mg/kg, route gavage, dose level Low; for APTT / Bas / Eos / Fbg / Hb / Ht / Lym / MCH / MCHC / MCV / Mono / Neu / PT / Plat / RBC / Ret / WBC: tissue Blood; for KIDNEY_L / KIDNEY_R / KIDNEY_TOTAL: tissue Kidney; for LIVER: tissue Liver; for A/G / ALP / ALT / AST / BUN / CRE / Ca / Cl / DBIL / GLC / IP / K / LDH / Na / PL / RALB / TBIL / TC / TG / TP / gamma-GTP: tissue Plasma

For `O=C(O)COc1nn(Cc2ccccc2)c2ccccc12` [BENDAZAC], the TERMINAL_BW (72 h, time 3 day) was 236.5 g, the APTT (72 h, time 3 day) was 17 s and the Bas (72 h, time 3 day) was 0%. For the same compound, the Eos (72 h, time 3 day) was 1.4%, the Fbg (72 h, time 3 day) was 215.2 mg/dL and the Hb (72 h, time 3 day) was 13.4 g/dL. The Ht (72 h, time 3 day) was 40.6%, the Lym (72 h, time 3 day) was 79.2% and the MCH (72 h, time 3 day) was 21.1 pg. It also gave an MCHC (72 h, time 3 day) of 33%, an MCV (72 h, time 3 day) of 63.9 fL and a Mono (72 h, time 3 day) of 6.6%. For the same compound, the Neu (72 h, time 3 day) was 12.8%, the PT (72 h, time 3 day) was 11.9 s and the Plat (72 h, time 3 day) was 128 x10_4/uL. It also gave an RBC (72 h, time 3 day) of 636 x10_4/ul, a Ret (72 h, time 3 day) of 6.9% and a WBC (72 h, time 3 day) of 98.4 x10_2/uL. For the same compound, the KIDNEY_L (72 h, time 3 day) was 1 g, the KIDNEY_R (72 h, time 3 day) was 1 g and the KIDNEY_TOTAL (72 h, time 3 day) was 2.1 g. It also gave an LIVER (72 h, time 3 day) of 11.9 g, an A/G (72 h, time 3 day) of 2.2 and an ALP (72 h, time 3 day) of 891 IU/L. For the same compound, the ALT (72 h, time 3 day) was 36.6 IU/L, the AST (72 h, time 3 day) was 66.6 IU/L and the BUN (72 h, time 3 day) was 17.2 mg/dL. For the same compound, the CRE (72 h, time 3 day) was 0.6 mg/dL, the Ca (72 h, time 3 day) was 11 mg/dL and the Cl (72 h, time 3 day) was 103 meq/L. It also gave a DBIL (72 h, time 3 day) of 0.018 mg/dL, a GLC (72 h, time 3 day) of 205.2 mg/dL and an IP (72 h, time 3 day) of 7.5 mg/dL. The K (72 h, time 3 day) was 4.5 meq/L, the LDH (72 h, time 3 day) was 128 IU/L and the Na (72 h, time 3 day) was 140.4 meq/L. The PL (72 h, time 3 day) was 149.8 mg/dL, the RALB (72 h, time 3 day) was 3.9 g/dL and the TBIL (72 h, time 3 day) was 0.4 mg/dL. For the same compound, the TC (72 h, time 3 day) was 74.4 mg/dL, the TG (72 h, time 3 day) was 99.6 mg/dL and the TP (72 h, time 3 day) was 5.7 g/dL. It also gave a gamma-GTP (72 h, time 3 day) of 0.8 IU/L, a TERMINAL_BW ([…], time 7 day) of 260.1 g and a TERMINAL_BW ([…], time 14 day) of 298.7 g. It also gave a TERMINAL_BW ([…], time 28 day) of 393.4 g, an APTT ([…], time 7 day) of 17.3 s and a Bas ([…], time 7 day) of 0%. For the same compound, the Eos ([…], time 7 day) was 1.2%, the Fbg ([…], time 7 day) was 214.6 mg/dL and the Hb ([…], time 7 day) was 14.1 g/dL. The Ht ([…], time 7 day) was 41.5%, the Lym ([…], time 7 day) was 78.4% and the MCH ([…], time 7 day) was 21.2 pg. The MCHC ([…], time 7 day) was 34%, the MCV ([…], time 7 day) was 62.4 fL and the Mono ([…], time 7 day) was 6.8%. The Neu ([…], time 7 day) was 14%, the PT ([…], time 7 day) was 11.7 s and the Plat ([…], time 7 day) was 131.9 x10_4/uL. It also gave an RBC ([…], time 7 day) of 665.6 x10_4/ul, a Ret ([…], time 7 day) of 6.1% and a WBC ([…], time 7 day) of 109.2 x10_2/uL. It also gave an APTT ([…], time 14 day) of 17.1 s, a Bas ([…], time 14 day) of 0% and an Eos ([…], time 14 day) of 0.6%. It also gave a Fbg ([…], time 14 day) of 228.2 mg/dL, a Hb ([…], time 14 day) of 14.9 g/dL and a Ht ([…], time 14 day) of 44%. The Lym ([…], time 14 day) was 85.2%, the MCH ([…], time 14 day) was 20.6 pg and the MCHC ([…], time 14 day) was 33.8%. The MCV ([…], time 14 day) was 61 fL, the Mono ([…], time 14 day) was 3.4% and the Neu ([…], time 14 day) was 10.4%. The PT ([…], time 14 day) was 11 s, the Plat ([…], time 14 day) was 121.3 x10_4/uL and the RBC ([…], time 14 day) was 720.6 x10_4/ul. The Ret ([…], time 14 day) was 2.8%, the WBC ([…], time 14 day) was 112.1 x10_2/uL and the APTT ([…], time 28 day) was 17.2 s. The Bas ([…], time 28 day) was 0%, the Eos ([…], time 28 day) was 1.2% and the Fbg ([…], time 28 day) was 217.6 mg/dL. The Hb ([…], time 28 day) was 15.4 g/dL, the Ht ([…], time 28 day) was 45.1% and the Lym ([…], time 28 day) was 77.4%. It also gave an MCH ([…], time 28 day) of 19.3 pg, an MCHC ([…], time 28 day) of 34.1% and an MCV ([…], time 28 day) of 56.7 fL. It also gave a Mono ([…], time 28 day) of 5.4%, a Neu ([…], time 28 day) of 15.4% and a PT ([…], time 28 day) of 12 s. The Plat ([…], time 28 day) was 119.3 x10_4/uL, the RBC ([…], time 28 day) was 796.6 x10_4/ul and the Ret ([…], time 28 day) was 2.3%. For the same compound, the WBC ([…], time 28 day) was 105.4 x10_2/uL, the KIDNEY_L ([…], time 7 day) was 1.1 g and the KIDNEY_R ([…], time 7 day) was 1.1 g. The KIDNEY_TOTAL ([…], time 7 day) was 2.2 g, the KIDNEY_L ([…], time 14 day) was 1.2 g and the KIDNEY_R ([…], time 14 day) was 1.2 g. It also gave a KIDNEY_TOTAL ([…], time 14 day) of 2.5 g, a KIDNEY_L ([…], time 28 day) of 1.5 g and a KIDNEY_R ([…], time 28 day) of 1.5 g. It also gave a KIDNEY_TOTAL ([…], time 28 day) of 2.9 g, an LIVER ([…], time 7 day) of 12.5 g and an LIVER ([…], time 14 day) of 13.5 g. For the same compound, the LIVER ([…], time 28 day) was 16.7 g, the A/G ([…], time 7 day) was 2.1 and the ALP ([…], time 7 day) was 930 IU/L. It also gave an ALT ([…], time 7 day) of 32.8 IU/L, an AST ([…], time 7 day) of 68.4 IU/L and a BUN ([…], time 7 day) of 18.6 mg/dL. It also gave a CRE ([…], time 7 day) of 0.5 mg/dL, a Ca ([…], time 7 day) of 10.9 mg/dL and a Cl ([…], time 7 day) of 104.8 meq/L. For the same compound, the DBIL ([…], time 7 day) was 0 mg/dL, the GLC ([…], time 7 day) was 214.2 mg/dL and the IP ([…], time 7 day) was 7.2 mg/dL. For the same compound, the K ([…], time 7 day) was 4.5 meq/L, the LDH ([…], time 7 day) was 94.4 IU/L and the Na ([…], time 7 day) was 142 meq/L. For the same compound, the PL ([…], time 7 day) was 145.4 mg/dL, the RALB ([…], time 7 day) was 3.9 g/dL and the TBIL ([…], time 7 day) was 0.4 mg/dL. It also gave a TC ([…], time 7 day) of 72 mg/dL, a TG ([…], time 7 day) of 114.6 mg/dL and a TP ([…], time 7 day) of 5.7 g/dL. It also gave a gamma-GTP ([…], time 7 day) of 0.8 IU/L, an A/G ([…], time 14 day) of 1.7 and an ALP ([…], time 14 day) of 683.4 IU/L. For the same compound, the ALT ([…], time 14 day) was 31.6 IU/L, the AST ([…], time 14 day) was 62.6 IU/L and the BUN ([…], time 14 day) was 18.4 mg/dL. For the same compound, the CRE ([…], time 14 day) was 0.5 mg/dL, the Ca ([…], time 14 day) was 10.5 mg/dL and the Cl ([…], time 14 day) was 105.8 meq/L. The DBIL ([…], time 14 day) was 0.03 mg/dL, the GLC ([…], time 14 day) was 185.4 mg/dL and the IP ([…], time 14 day) was 6.9 mg/dL. The K ([…], time 14 day) was 4.6 meq/L, the LDH ([…], time 14 day) was 131.8 IU/L and the Na ([…], time 14 day) was 140.8 meq/L. For the same compound, the PL ([…], time 14 day) was 154.2 mg/dL, the RALB ([…], time 14 day) was 3.8 g/dL and the TBIL ([…], time 14 day) was 0.3 mg/dL. It also gave a TC ([…], time 14 day) of 73.2 mg/dL, a TG ([…], time 14 day) of 125.8 mg/dL and a TP ([…], time 14 day) of 6 g/dL. For the same compound, the gamma-GTP ([…], time 14 day) was 1.4 IU/L, the A/G ([…], time 28 day) was 1.5 and the ALP ([…], time 28 day) was 780.4 IU/L. It also gave an ALT ([…], time 28 day) of 30.4 IU/L, an AST ([…], time 28 day) of 62.4 IU/L and a BUN ([…], time 28 day) of 17.6 mg/dL. It also gave a CRE ([…], time 28 day) of 0.5 mg/dL, a Ca ([…], time 28 day) of 10 mg/dL and a Cl ([…], time 28 day) of 104.2 meq/L. For the same compound, the DBIL ([…], time 28 day) was 0.006 mg/dL, the GLC ([…], time 28 day) was 192.2 mg/dL and the IP ([…], time 28 day) was 6 mg/dL. It also gave a K ([…], time 28 day) of 4.4 meq/L, an LDH ([…], time 28 day) of 90 IU/L and a Na ([…], time 28 day) of 139.6 meq/L. For the same compound, the PL ([…], time 28 day) was 147.6 mg/dL, the RALB ([…], time 28 day) was 3.7 g/dL and the TBIL ([…], time 28 day) was 0.3 mg/dL. For the same compound, the TC ([…], time 28 day) was 68.2 mg/dL, the TG ([…], time 28 day) was 169 mg/dL and the TP ([…], time 28 day) was 6.3 g/dL. It also gave a gamma-GTP ([…], time 28 day) of 1.6 IU/L.
